The nature of series [1]: Antioxidant activity assessed as DPPH scavenging activity at 100 uM after 60 mins by spectrophotometry. The class given is physicochemical. As to conditions: 1 h. A general note: DPPH is a stable violet radical that fades when it is reduced; call rule not given here.
Series [2] has as its system SW-620. In words: Cytostatic activity against human SW620 cells assessed as growth inhibition after 3 to 4 days by MTT assay. Format: functional, cell-based. Background: Tetrazolium dyes change colour on reduction, which living cells bring about.
The nature of series [3]: Antioxidant activity assessed as DPPH scavenging activity at 100 uM after 20 mins by spectrophotometry. The class given is physicochemical.
A short description of series [4]: Cytostatic activity against human H460 cells assessed as growth inhibition after 3 to 4 days by MTT assay. Format: functional, cell-based. The settings on record: NCI-H460.
The subject of series [5] is HeLa. In words: Cytostatic activity against human HeLa cells assessed as growth inhibition after 3 to 4 days by MTT assay. The class given is functional, cell-based.
The subject of series [6] is L1210. In words: Cytostatic activity against mouse L1210 cells assessed as growth inhibition after 3 to 4 days by MTT assay. Format: functional, cell-based.
Series [7] in a line: Cytostatic activity against human MIAPaCa2 cells assessed as growth inhibition after 3 to 4 days by MTT assay. The settings on record: MIA PaCa-2. Format: functional, cell-based.
For series [8], the target named is Lipoxygenase (Glycine max, UniProt Q39829). In words: Inhibition of soybean LOX using sodium linoleate as substrate by spectrophotometry.
In series [9] the test system is CCRF-CEM. In words: Cytostatic activity against human CEM cells assessed as growth inhibition after 3 to 4 days by MTT assay. The class given is functional, cell-based.
A short description of series [10]: Cytostatic activity against human Molt4/C8 cells assessed as growth inhibition after 3 to 4 days by MTT assay. The class given is functional, cell-based. The settings on record: MOLT-4.
Series [11] concerns MCF7. The series is described as follows: Cytostatic activity against human MCF7 cells assessed as growth inhibition after 3 to 4 days by MTT assay. The class given is functional, cell-based.
The nature of series [12]: Antioxidant activity assessed as inhibition of lipid peroxidation at 100 uM by spectrophotometry. Format: physicochemical.
The target of series [13] is Lipoxygenase (Glycine max) (UniProt Q39829). The series is described as follows: Inhibition of soybean LOX using sodium linoleate as substrate at 100 uM by spectrophotometry.

The term IC50 denotes the concentration that inhibits the measured activity by half. One may read the inhibition as the change of the read-out against control, counted positive when it falls. Low readings indicate a weak effect, high ones a strong effect.

`COc1cc(NC(C)CCCNC(=O)NNC(=O)NCCNC(c2ccccc2)(c2ccccc2)c2ccccc2)c2ncccc2c1` (centres undefined): the values for the Activity in [1] and in [3] were 41% and 30%, respectively. For the same compound, the IC50 in series [2] came out at 7 µM; in [4], 4 µM; in [5], 10 µM; in [6] it was 6.2 µM; in series [7] it was 5 µM; in series [8] (read-out: IC50) it was 100 µM. The results for the IC50 in series [9], in series [10] and in series [11] were 4.2 µM, 8 µM and 2 µM, respectively. For the same compound, the “inhibition (INH)” value in [12] came out at 88%.
As to `COc1cc(NC(C)CCCNC(=O)NNC(=O)Nc2ccc(Cl)c(C(F)(F)F)c2)c2ncccc2c1` (centres undefined), the values for the Activity in [1] and in series [3] were 90% and 64%, respectively. Further, the IC50 in series [2] is 15 µM; in [4], 13 µM; in [5] it was 17 µM; in series [6], 19 µM; in series [7], 18 µM; in series [8], “Not Active”. The IC50 worked out at 14 µM in [9], 19 µM in series [10] and 2 µM in series [11]. In addition, in [12], the “inhibition (INH)” value was 63%.
Consider `COc1cc(NC(C)CCCNC(=O)NNC(=O)NCCO)c2ncccc2c1` (centres undefined), for which the results for the Activity in series [1] and in series [3] were 20% and “Not Active”, respectively. The IC50 in series [2] is over 100 µM; in series [4], over 100 µM; in series [5] it was 196 µM; in series [6], over 250 µM; in series [7] it was at least 250 µM; in series [8] it was “Not Active”. For the same compound, the IC50 in series [9] was over 250 µM; in series [10], over 250 µM; in series [11], 13 µM. For the same compound, in [12], the “inhibition (INH)” value is 27%.
For `COc1ccc(C(=NNC(=O)NCCCC(C)Nc2cc(OC)cc3cccnc23)c2ccc(OC)cc2)cc1` (centres undefined), the values for the Activity in series [1] and in series [3] were 14% and 5%, respectively. The IC50 is over 100 µM in series [2]; over 100 µM in [4]; over 250 µM in series [5]; over 250 µM in series [6]; over 250 µM in [7]; 60 µM in series [8] (read-out: IC50). In addition, the IC50 was over 250 µM in series [9], over 250 µM in [10] and 6 µM in series [11]. Also, in series [12], the “inhibition (INH)” value is listed as 98%.
Take `COc1ccc(/C(=N/NC(=O)NCCCC(C)Nc2cc(OC)cc3cccnc23)c2ccccc2)cc1` (centres undefined): the Activity is 26% in [1] and 19% in [3]. Also, the IC50 in series [2] is over 100 µM; in series [4] it was over 100 µM; in [5] it was 129 µM; in [6], 34 µM; in series [7], 155 µM; in [8] (read-out: IC50) it was 60.5 µM. Moreover, the concentration for half-maximal inhibition (IC50) in [9] is 10 µM; in [10], at least 250 µM; in [11], 5 µM. Also, in [12], the “inhibition (INH)” value stood at 77%.
Regarding `CC(Cc1ccc(O)c(O)c1)C(C)Cc1ccc(O)c(O)c1` (centres undefined) [NORDIHYDROGUAIARETIC ACID], the Activity is 91% in series [1] and 80% in [3]. Besides, the IC50 in [8] (read-out: IC50) was found to be 28 µM. Also, in series [13], the inhibition turned out to be 84%.
Take `COc1cc(NC(C)CCCNC(=O)NCCNC(c2ccccc2)(c2ccccc2)c2ccccc2)c2ncccc2c1` (centres undefined): the Activity in series [1] is listed as 12%; in series [3], “Not Active”. Moreover, the IC50 in [2] was 54 µM; in series [4] it was over 100 µM; in [5], 38 µM; in [6], 40 µM; in series [7], 40 µM; in [8] (read-out: IC50), 93 µM. The IC50 in series [9] is 10 µM; in [10], 210 µM; in [11] it was 45 µM. Also, the “inhibition (INH)” value in series [12] was 89%.
For the compound `COc1cc(NC(C)CCCNC(=O)NNC(=O)NC(c2ccccc2)c2ccc(Cl)cc2)c2ncccc2c1` (centres undefined), the Activity was 55% in series [1] and 30% in [3]. Moreover, the IC50 in series [2] came to 3 µM; in [4], 3 µM; in series [5], 6.9 µM; in [6], 8.8 µM; in series [7], 6 µM; in series [8] (read-out: IC50) it was 70.5 µM. Further, the figures for the IC50 in series [9], in series [10] and in series [11] were 5.5 µM, 9.6 µM and 2 µM, respectively. In addition, the “inhibition (INH)” value in series [12] stood at 77%.
As to `COc1cc(NC(C)CCCNC(=O)NC(c2ccccc2)c2ccc(Cl)cc2)c2ncccc2c1` (centres undefined), the Activity in series [1] was determined as 24%; in [3] it was 12%. Also, the IC50 was over 100 µM in series [2]; over 100 µM in series [4]; 186 µM in series [5]; 94 µM in series [6]; 181 µM in series [7]; 57.9 µM in series [8] (read-out: IC50). For the same compound, the IC50 in series [9] is 86 µM; in [10], at least 250 µM; in series [11], over 100 µM. In addition, the “inhibition (INH)” value in series [12] is 90%.
Consider `COc1cc(NC(C)CCCNC(=O)NNC(=O)N(C)C(c2ccccc2)c2ccccc2)c2ncccc2c1` (centres undefined), for which the Activity in series [1] was 73%; in [3], 44%. Also, the IC50 in series [2] turned out to be 27 µM; in [4] it was 16 µM; in [5], 22 µM; in [6] it was 16 µM; in series [7] it was 18 µM; in series [9], 10 µM. The IC50 in series [10] is 19 µM; in series [11], 5 µM. In series [12], the “inhibition (INH)” value came out at 69%. Besides, the inhibition in series [13] came to 44%.
As to `O=C(NC(c1ccccc1)c1ccc(Cl)cc1)n1nnc2ccccc21` (centres undefined), the Activity is listed as 12% in series [1] and 24% in series [3]. For the same compound, the IC50 in [2] came out at 23 µM; in series [4], 18 µM; in series [5] it was 87 µM; in series [6], 67 µM; in series [7] it was 110 µM; in [9], 116 µM. For the same compound, the IC50 in [10] was determined as 176 µM; in [11] it was 42 µM. The “inhibition (INH)” value in [12] is 63%. The compound further yielded an inhibition in [13] of 28%.
Take `COc1cc(NC(C)CCCNC(=O)NNC(=O)NCCCO)c2ncccc2c1` (centres undefined): the results for the Activity in [1] and in series [3] were 20% and 9%, respectively. The IC50 in series [2] was over 100 µM; in [4] it was over 100 µM; in series [5], over 250 µM; in series [6], over 250 µM; in series [7] it was at least 250 µM; in series [8], “Not Active”. Further, the IC50 in [9] is over 250 µM; in series [10], over 250 µM; in series [11], 13 µM. Further, in series [12], the “inhibition (INH)” value was found to be 45%.
Regarding `COc1cc(NC(C)CCCNC(=O)NNC(=O)NCCCC(C)Nc2cc(OC)cc3cccnc23)c2ncccc2c1` (centres undefined), the Activity in series [1] is 37%; in series [3], 18%. For the same compound, the IC50 in series [2] is over 100 µM; in series [4] it was 94 µM; in series [5] it was 67 µM; in [6] it was 92 µM; in [7] it was 69 µM; in series [9], 87 µM. Moreover, the IC50 in series [10] was at least 250 µM; in series [11], 0.2 µM. Also, in series [12], the “inhibition (INH)” value is 65%. This compound registered an inhibition in [13] of 31%.
On to `COc1ccc(C(=NNC(=O)NNC(=O)NCCCC(C)Nc2cc(OC)cc3cccnc23)c2ccc(OC)cc2)cc1` (centres undefined), for which the Activity in [1] is on record as 84%; in [3] it was 37%. Further, the IC50 in [2] is at least 100 µM; in series [4] it was 5 µM; in series [5], 50 µM; in [6], 7.5 µM; in series [7], 11 µM; in series [8] (read-out: IC50) it was 75 µM. Moreover, the IC50 in series [9] was found to be 8 µM; in [10], 12 µM; in series [11], 1 µM. The “inhibition (INH)” value in [12] came to 82%.
For the compound `CN(C(=O)n1nnc2ccccc21)C(c1ccccc1)c1ccccc1`, the Activity result is reported as “Not Active” in [1] and 3% in series [3]. For the same compound, the concentration for half-maximal inhibition (IC50) is at least 100 µM in series [2]; 27 µM in series [4]; 25 µM in series [5]; 15 µM in series [6]; 26 µM in series [7]; 87.5 µM in [8] (read-out: IC50). Moreover, the IC50 in series [9] is 24 µM; in series [10], 28 µM; in [11] it was 23 µM. Moreover, the “inhibition (INH)” value in [12] was determined as 76%.
With `COc1ccc(/C(=N/NC(=O)NNC(=O)NCCCC(C)Nc2cc(OC)cc3cccnc23)c2ccccc2)cc1` (centres undefined), the Activity in series [1] was determined as 64%; in [3], 47%. Also, the IC50 in series [2] worked out at 7 µM; in [4], 7 µM; in series [5], 18 µM; in series [6], 6.2 µM; in [7], 13 µM; in series [8] (read-out: IC50) it was 60.5 µM. Further, the IC50 in series [9] is 7.4 µM; in series [10], 12 µM; in series [11] it was 2 µM. Moreover, the “inhibition (INH)” value in [12] was determined as 78%.

Source of the values: ChEMBL document CHEMBL3352491, “Novel semicarbazides and ureas of primaquine with bulky aryl or hydroxyalkyl substituents: synthesis, cytostatic and antioxidative activity” (Eur J Med Chem, 2014).
